Laboratory results: paper PMC3220813 (Cancer Chemotherapy and Pharmacology, 2011)
pIC50: −log10 of the molar value. In brackets after ≈: the same amount, converted by molar mass. Where two headings read alike, the source gives them in different places. Marks after values point to notes of the source that are not given here. Values belong to the compound of their own block, whether it stands above or below them.

Legend:
[1] = cited from earlier work; for increase in drug exposure with a high-fat meal: CI-1040 at 800 and 1,600 mg
[2] = cited from earlier work
[3] = assay type: in vivo, human; conditions: for AUC0–t, geometric mean / AUC, geometric mean / Cmax, geometric mean / t1/2, geometric mean / tmax, median / CL/F, geometric mean / Vd/F: PP population; for time up to which measurable plasma concentrations were observed: both fed and fasted periods; for Vd/F: Vz/F, geometric mean
purified MEK1 = conditions: cited from earlier work
[4] = Classification by permeability and solubility; conditions: tentative; class IV = low permeability and low solubility
Safety and tolerability = assay type: in vivo, human
[5] = test system: various other kinases, enzymes, receptors, ion channels, and transporters; conditions: cited from earlier work
[6] = test system: advanced solid malignancies; assay: Objective tumor response by RECIST 1.0; assay type: in vivo, human; conditions: 28 evaluable patients, both cutaneous melanoma
[7] = in vivo; cited from earlier work
[8] = ref data on file, cited from earlier work
Caco-2 cells = conditions: ref data on file; cited from earlier work
[9] = Fasted, metabolite after 75 mg selumetinib
[10] = Fed, metabolite after 75 mg selumetinib
[11] = AEs ≥10% of patients, safety population N = 30
[12] = reported in ≥2 patients, safety population, Total (N = 11)

SMILES: O=C(NOCC1CC1)c1ccc(F)c(F)c1Nc1ccc(I)cc1Cl [CI-1040]
increase in drug exposure with a high-fat meal [1]: 4.5 fold | MTD and recommended Phase II dose (RP2D) ([1]; administered with food): 800 mg BID

AUC0–t, geometric mean [3, 9]: 376.4 ng/h/mL | AUC, geometric mean [3, 9]: 418.4 ng·h/mL | Cmax, geometric mean [3, 9]: 73.9 ng/mL | t1/2, geometric mean [3, 9]: 7.7 h | tmax, median [3, 9]: 1.50^a h | AUC0–t, geometric mean [3, 10]: 282.4 ng/h/mL | AUC, geometric mean [3, 10]: 379.1 ng·h/mL | Cmax, geometric mean [3, 10]: 33.5 ng/mL | t1/2, geometric mean [3, 10]: 6.8 h | tmax, median [3, 10]: 4.0^a h | time up to which measurable plasma concentrations were observed [3]: up to 24 h | ratio of N-desmethyl-selumetinib to selumetinib (metabolite to parent) ([3]; fasted state): 0.07 | ratio of N-desmethyl-selumetinib to selumetinib (metabolite to parent) ([3]; fed state): 0.06 | delay of median tmax in the fed condition ([3]; metabolite after 75 mg selumetinib): approximately 3 h
SMILES: O=C(NOCCO)c1cc2nc[nH]c2c(F)c1Nc1ccc(Br)cc1Cl [N-desmethyl-selumetinib]
AUC relative to parent compound ([2]; plasma metabolite exposure): < 15% | Cmax relative to parent compound ([2]; plasma metabolite exposure): < 15% | greater potency for MEK1 inhibition than selumetinib (purified MEK1; in vitro): 3- to 5 fold

SMILES: O=C(O)c1ccc(F)c(F)c1Nc1ccc(I)cc1Cl [PD-0184264]
increase in drug exposure with a high-fat meal [1]: 5 fold

SMILES: Cn1cnc2c(F)c(Nc3ccc(Br)cc3Cl)c(C(N)=O)cc21 [selumetinib amide]
less active than selumetinib (purified MEK1): up to 50 fold

SMILES: Cn1cnc2c(F)c(Nc3ccc(Br)cc3Cl)c(C(=O)NOCCO)cc21 [selumetinib]
total body clearance from plasma after an oral dose (CL/F) ([2]; across studied dose range): 12 to 23 L/h | volume of distribution at steady state (Vss/F) ([2]; across studied dose range): 87 to 126 L | terminal elimination half-life (t1/2) ([2]; single dose): 5 to 8 h | delay of median tmax in the presence of food ([3]; 75 mg, fed minus fasted): approximately 2.5 h | CL/F, geometric mean ([3]; Fasted): 12.9 L/h | CL/F, geometric mean ([3]; Fed): 16.0 L/h | time up to which measurable plasma concentrations were observed [3]: up to 48 h | AUC(0-t) ([3]; human, plasma, oral, 75 mg): 5640 ng·h/mL | Vd/F ([3]; human, plasma, oral, 75 mg, Fasted): 175 L | Vd/F ([3]; human, plasma, oral, 75 mg, Fed): 199 L | class (permeability/solubility classification) [4]: tentative class IV | tolerability / safety profile (Safety and tolerability; 75 mg, advanced cancer population): well tolerated | Abdominal pain, number (%) of patients (Safety and tolerability; [11]): 8 (26.7) Number (%) of patients | Anemia, number (%) of patients (Safety and tolerability; [11]): 7 (23.3) Number (%) of patients | Constipation, number (%) of patients (Safety and tolerability; [11]): 11 (36.7) Number (%) of patients | Diarrhea, number (%) of patients (Safety and tolerability; [11]): 14 (46.7) Number (%) of patients | Dizziness, number (%) of patients (Safety and tolerability; [11]): 8 (26.7) Number (%) of patients | Dyspnoea, number (%) of patients (Safety and tolerability; [11]): 10 (33.3) Number (%) of patients | Edema peripheral, number (%) of patients (Safety and tolerability; [11]): 7 (23.3) Number (%) of patients | Fatigue, number (%) of patients (Safety and tolerability; [11]): 13 (43.3) Number (%) of patients | Headache, number (%) of patients (Safety and tolerability; [11]): 7 (23.3) Number (%) of patients | Nausea, number (%) of patients (Safety and tolerability; [11]): 18 (60.0) Number (%) of patients | Rash, number (%) of patients (Safety and tolerability; [11]): 16 (53.3) Number (%) of patients | Vomiting, number (%) of patients (Safety and tolerability; [11]): 9 (30.0) Number (%) of patients | patients with one or more dose reductions (Safety and tolerability; extension part, 75 mg BD, largely due to AEs (n = 6)): 10 patients | patients who died whilst on study (Safety and tolerability; intestinal perforation due to disease progression): 3.3% | patients with grade 4 AEs (Safety and tolerability; not considered causally related to study treatment): 6.7% | patients reporting an AE of grade 3 or higher (Safety and tolerability; overall safety population, 30 patients): 60.0% | Abdominal pain, SAE of ≥CTC grade 3, number (%) of patients (Safety and tolerability; [12]): 2 (6.7) Number (%) of patients | Anemia, SAE of ≥CTC grade 3, number (%) of patients (Safety and tolerability; [12]): 2 (6.7) Number (%) of patients | Constipation, SAE of ≥CTC grade 3, number (%) of patients (Safety and tolerability; [12]): 2 (6.7) Number (%) of patients | Dyspnoea, SAE of ≥CTC grade 3, number (%) of patients (Safety and tolerability; [12]): 3 (10.0) Number (%) of patients | Vomiting, SAE of ≥CTC grade 3, number (%) of patients (Safety and tolerability; [12]): 2 (6.7) Number (%) of patients | activity against various other kinases, enzymes, receptors, ion channels, and transporters [5]: did not show significant activity | partial responses [6]: 7.1% | route of excretion [7]: predominantly via the feces | solubility ([8]; pH1): 274 µg/mL (≈ 599 µM) | solubility ([8]; pH 7.4): 3.4 µg/mL (≈ 7.43 µM) | pIC50 (purified MEK1; read-out: IC50 against purified MEK1): 7.85 | permeability across Caco-2 cells (Caco-2 cells): moderate permeability
